The values below come from patent US11583502B2, “Pharmaceutical compositions comprising a thyroid hormone beta agonist, method of use and method making thereof” (GANNEX PHARMA CO., LTD., priority 2020, dated 2023).

Series [1] can be described thus: Solubility of the compound of Formula (I) in media without surfactant. Format: physicochemical. An excerpt: The compound of Formula (I), however, is a lipophilic drug that is highly insoluble in water. […] The very low solubility limits its use in research and development as a drug candidate.
For drugs with poor solubility, in vitro dissolution evaluation is a simple and effective method for predicting and comparing dissolution in vivo. In vitro dissolution evaluation is also an important criterion for screening prescription drugs for quality control. […] Therefore, in order to completely dissolve the compound in a conventional 900 ml medium for a 10 mg/unit dose formulation, it is necessary to increase the solubility of the compound to at least 11.11 μg/ml. It would be difficult to achieve such a target with conventional solubilization technology.

Series [2] is classed as physicochemical. As to conditions: 3.5 hours.

In the case of `Cc1cc(OC[P@@]2(=O)OCC[C@@H](c3cccc(Cl)c3)O2)cc(C)c1Cc1ccc(O)c(C(C)C)c1` [compound of Formula (I)], the solubility was under 0.5 ng/mL in series [1] (aqueous buffer, hydrochloric acid solution, buffer, and water without surfactant at 37° C. and pH 1.0˜9.0); under 0.5 ng/mL in series [1] (medium containing no surfactant). The “drug undergoing degradation reactions” value in series [2] was 10.2%.

As usually defined, the solubility is the concentration that dissolves in the medium under given conditions. A low value points to little dissolved substance.
